Patent US10842749B2, “Compositions and methods of treating therapy resistant cancer and uses thereof” (priority 2012, dated 2020)

Tests used:
[1] = Heart H&E staining and body weight in treated tumor mice
Protocol: FIGS. 4A-4C show H&E staining of heart tissues in mice treated with 6 mg/kg free Dox, Doxil, or porous silicon/pDox for 6 weeks.
(§1) Applicants selected the murine model of MDA-MB-231 human breast cancer lung metastasis, widely used to study mechanism of pathology and for drug development^37-39, to evaluate therapeutic efficacy of porous silicon/pDox. […] Applicants treated the tumor-bearing mice with free pDox, porous silicon/pDox, and the clinically available drugs doxorubicin and Doxil, beginning one week after tumor inoculation and lasting for 6 weeks. Drugs were dosed biweekly at 6 mg/kg to mice in all treatment groups (10 mice per group) except free Dox.

[2] = Tissue distribution of Dox by HPLC in MDA-MB-231 lung metastasis mice
Protocol: They were sacrificed 1 hour, 1 day, or 7 days later. Dox concentration in major organs was analyzed by HPLC.
Quantitation of doxorubicin was performed using Daunorubicin (Dau, Sigma) as an internal standard^49. Briefly, tissues were homogenized in PBS (100 mg tissue/330 μL PBS), and then mixed with 10 μL Dau (50 μg/mL). A 4-fold volume of the extraction solution containing chloroform and methanol (3/1, v/v) was subsequently added. The mixture was vortexed for 1 minute, and centrifuged at 13,000 rpm for 10 minutes to separate the aqueous and organic phases. The organic phase was collected, and the solvent was evaporated at 25° C. under a flow of nitrogen. The extract was dissolved in 100 μL methanol, and a 10 μL aliquot was used for HPLC analysis.

4T1 lung metastasis [3] = assay: 4T1 lung metastasis model, follow-up study (weekly x 4 after surgery)
Protocol: 4T1 tumor cells were inoculated in the fourth mammary gland fat pad of female BALB/c mice. The primary tumors were surgically removed when they reached 250-300 mm3, and mice (n=10 mice/group) were treated weekly with 6 mg/kg Dox, Doxil, pDox, or Porous silicon/pDox for four consecutive weeks. Tumor growth was monitored by tracking bioluminescent intensity with the Xenogene IVIS-200 imaging system.
To generate the mouse 4T1 lung metastasis model, BALB/c mice were inoculated with 4T1 cells (5×10^4 cells/mouse) into the mammary gland fat pad. […] In the follow-up study, 4T1 cells that were engineered to express luciferase and GFP, and were inoculated into the mammary gland fat pads of female BALB/c mice. The primary tumors were surgically removed once they reached 250-300 mm^3. Mice were treated with 6 mg/kg of the therapeutic agents weekly for 4 weeks, and subsequently maintained to assess survival benefit from treatments.
To evaluate drug dosing requirements and sustainability after administration, Applicants applied a different drug regimen to BALB/c mice bearing 4T1 tumors. Applicants performed complete surgical removal of the primary tumors once they reached 250-300 mm3, and confirmed that the extraction was thorough by the lack of bioluminescence from the luciferase- and GFP-bearing mammary gland fat pads (FIG. 5A). […]

MDA-MB-231 cells = assay: Intracellular trafficking of Dox and pDox; format: cell-based, human; conditions: fluorescence microscopy
Protocol: FIGS. 2A-2H show vesicular transport of pDox in tumor cells and effective killing of tumor cells carrying an overexpressed multidrug resistance gene mediated by pDox. […] The presence of doxorubicin (red) in subcellular organelle was visualized by fluorescence microscopy. Nuclei were stained blue with DAPI and late endosomes/lysosomes were stained green with LysoTracker. Nuclear accumulation could be detected as early as 15 minutes after treatment of cells with Dox, while co-localization of Dox with LysoTracker was apparent in pDox treated cells 15 minutes and 1 hour after treatment. […] The cells were sensitive to pDox, but resistant to treatment with free Dox. FIG. 2D depicts fluorescence images of subcellular organelles. Nuclei were stained in blue DAPI and lysosomes were stained in green with LysoTracker. […]
Applicants conducted studies to compare cellular uptake and subcellular trafficking of free Dox and pDox nanoparticles in MDA-MB-231 cells. […] However, no nuclear accumulation was detected in the pDox-treated cells at the same time (FIG. 2A and FIG. 2D). The red fluorescence from pDox could be co-localized with the green LysoTracker-positive subcellular organelles beginning at 15 minutes, and reached a high level one hour after pDox treatment (FIG. 2A and FIG. 2D), indicating pDox entered tumor cells via vesicular transport. […]

[4] = system: MDA-MB-231 human breast cancer lung metastasis; assay: Murine model of MDA-MB-231 human breast cancer lung metastasis; format: in vivo, nude mice; conditions: Dox 3 mg/kg weekly, 6 weeks
Protocol: as §1

4T1 lung metastasis [5] = assay: 4T1 lung metastasis model, pilot study (two treatments); format: in vivo, BALB/c mice; conditions: 6 mg/kg on day of surgery and 10 days later
Description: All mice were sacrificed three weeks after the first treatment, and lung tissues were examined for tumor metastasis. […] The arrows indicate tumor nodules in the lung (FIG. 5F-2).
Thus the 4T1 syngeneic tumor mice represent a second Triple Negative Breast Cancer (TNBC) tumor model in this study. When inoculated into the mammary gland fat pad of BALB/c mice, 4T1 tumor cells formed rapidly growing primary tumors. If left untreated, all of the mice would eventually develop lung metastasis from primary tumors. In a pilot study, surgical removal of primary tumors (about 400 mm^3 in size) was performed, and then PBS, Dox, pDox, or Porous silicon/pDox was administered once immediately after surgery and again 10 days post-surgery.

MDA-MB-231/MDR cells = assay: Cell viability of MDR1-transfected MDA-MB-231/MDR cells; format: cell-based, human; conditions: cell viability 72 hours after treatment
Protocol: FIGS. 2A-2H show vesicular transport of pDox in tumor cells and effective killing of tumor cells carrying an overexpressed multidrug resistance gene mediated by pDox. […] The presence of doxorubicin (red) in subcellular organelle was visualized by fluorescence microscopy. Nuclei were stained blue with DAPI and late endosomes/lysosomes were stained green with LysoTracker. Nuclear accumulation could be detected as early as 15 minutes after treatment of cells with Dox, while co-localization of Dox with LysoTracker was apparent in pDox treated cells 15 minutes and 1 hour after treatment. […] The cells were sensitive to pDox, but resistant to treatment with free Dox. FIG. 2D depicts fluorescence images of subcellular organelles. Nuclei were stained in blue DAPI and lysosomes were stained in green with LysoTracker. Images of Dox, nuclei and lysosomes were merged to show subcellular localization of Dox at different time points.
Many breast cancer patients are resistant to chemotherapy due to drug efflux. About 25-50% of previously untreated breast cancers express the MDR1 gene encoding p-glycoprotein, one of the drug efflux pump proteins^17. Overexpression of MDR1 has also been attributed to acquired resistance to anthracyclines and cross-resistance to other chemotherapy drugs in the clinic^15. […]

Structure (SMILES): COc1cccc2c1C(=O)c1c(O)c3c(c(O)c1C2=O)C[C@@](O)(C(=O)CO)C[C@@H]3O[C@H]1C[C@H](N)[C@H](O)[C@H](C)O1 [Dox, doxorubicin]
- heart histology (H&E) ([1]; 6 mg/kg biweekly): deformation of myocardial fibers
- body weight change ([1]; Dox 3 mg/kg weekly, Doxil, porous silicon/pDox 6 mg/kg biweekly): initial drop in body weight but recovered shortly
- Dox concentration in the heart ([2]; 6 mg/kg i.v., one hour after dosing): over 10 μg/g organ
- plasma Dox ([2]; 1 hour post-dosing): barely detectable
- extension of median survival over the PBS control (4T1 lung metastasis [3]; 6 mg/kg weekly for 4 weeks): 13 days
- Median survival after tumor inoculation (4T1 lung metastasis [3]; 6 mg/kg weekly for 4 weeks after surgical removal of primary tumor): 62 days
- time of nuclear accumulation after addition of drug (MDA-MB-231 cells): 15 min
- extension of median survival over control groups ([4]; pDox 6 mg/kg biweekly): 2 weeks
- Median survival ([4]; Doxil, pDox, MSV/pDox 6 mg/kg biweekly, tail vein): 98.5 days
- lung tumor nodules / metastasis (4T1 lung metastasis [5]): multiple, large tumor nodules in the lung
- sensitivity of MDR1-expressing cells to treatment (MDA-MB-231/MDR cells): resistant
